Legend:
Details in all cases: 72 h
[1] = tested on: BV-173
How it was run: (§1)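 Dose–response data were fitted with a four-parameter log-logistic model. They came from fifteen myeloid leukaemia lines treated in duplicate with five tenfold doses from 1 to 10,000 nM for 72 h at 37 °C with 5% CO2, with ATP viability normalised to vehicle and to a positive control at 10 µM. The IC50 was derived from these fits.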

[2] = tested on: HEL
How it was run: as §1

[3] = tested on: HL-60
How it was run: as §1

[4] = tested on: K-562
How it was run: as §1

[5] = tested on: KCL-22
How it was run: as §1

[6] = tested on: KG-1
How it was run: as §1

[7] = tested on: KU-812
How it was run: as §1

[8] = tested on: LAMA-84
How it was run: as §1

[9] = tested on: ML-2
How it was run: as §1

[10] = tested on: MOLM-13
How it was run: as §1

[11] = tested on: MV4-11
How it was run: as §1

[12] = tested on: Mono-Mac-6
How it was run: as §1

[13] = tested on: NOMO-1
How it was run: as §1

[14] = tested on: SHI-1
How it was run: as §1

[15] = tested on: THP-1
How it was run: as §1

[16] = tested on: BV-173; assay: cell viability (% survival relative to DMSO control, bortezomib = 0%); higher = less cytotoxic
How it was run: (§2)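 Seeding density for each of the 10 AML and 5 CML cell lines was titrated to the linear growth range. Cells went into 384-well plates pre-printed in duplicate with compounds at 1, 10, 100, 1000 or 10000 nM and were held for 72 h at 37 °C with 5% CO2. CellTiter-Glo luminescence then provided the readout. Percent survival is expressed relative to vehicle at 100% and a 10 µM positive control at 0%, averaged over duplicates.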

[17] = tested on: HEL; assay: as above
How it was run: as §2

[18] = tested on: HL-60; assay: as above
How it was run: as §2

[19] = tested on: K-562; assay: as above
How it was run: as §2

[20] = tested on: KCL-22; assay: as above
How it was run: as §2

[21] = tested on: KG-1; assay: as above
How it was run: as §2

[22] = tested on: KU-812; assay: as above
How it was run: as §2

[23] = tested on: LAMA-84; assay: as above
How it was run: as §2

[24] = tested on: ML-2; assay: as above
How it was run: as §2

[25] = tested on: MOLM-13; assay: as above
How it was run: as §2

[26] = tested on: MV4-11; assay: as above
How it was run: as §2

[27] = tested on: Mono-Mac-6; assay: as above
How it was run: as §2

[28] = tested on: NOMO-1; assay: as above
How it was run: as §2

[29] = tested on: SHI-1; assay: as above
How it was run: as §2

[30] = tested on: THP-1; assay: as above
How it was run: as §2

Cc1ccc(-c2cc(C(F)(F)F)nn2-c2ccc(S(N)(=O)=O)cc2)cc1 [Celecoxib]
Details	IC50 (cell viability) [µM]
[1]	> 10
[2]	> 10
[3]	> 10
[4]	> 10
[5]	> 10
[6]	> 10
[7]	> 10
[8]	> 10
[9]	> 10
[10]	> 10
[11]	> 10
[12]	> 10
[13]	> 10
[14]	> 10
[15]	> 10

cell viability [%]
Details	1 nM	10 nM	100 nM	1000 nM	10000 nM
[16]	104	93.2	86.4	84.9	83.2
[17]	96.1	104	89.9	99.5	97.1
[18]	99.2	103	84.5	188	124
[19]	96.3	86.6	85.6	95.4	78.4
[20]	101	76.4	90.7	76.9	80
[21]	96.8	102	97.4	110	93.8
[22]	92.4	91.9	95.6	90.6	62.8
[23]	98.6	106	94	93.7	79.6
[24]	93.5	99.2	105	87.4	76.8
[25]	81.3	85.7	85.4	139	92.5
[26]	97.5	96.4	83.7	110	79.4
[27]	104	101	105	104	75.3
[28]	101	109	94.8	99.4	95.5
[29]	118	104	95.6	112	94.2
[30]	105	102	105	95.5	84.7

From the supplement of paper PMC8671470
